Values of other authors, collected in article PMC7898037, “Improving mitochondria and ER stability helps eliminate upper motor neuron degeneration that occurs due to mSOD1 toxicity and TDP‐43 pathology” (Clinical and Translational Medicine, 2021).
pEC50: −log10 of the molar value.

Test system: SOD1^G93A‐expressing PC12 cell
Settings: in vitro potency; read-out: EC50 (protein aggregation/toxicity); cited from earlier work

SMILES: C[C@H](Oc1cc(C(F)(F)F)cc(C(F)(F)F)c1)C1CC(=O)CC(=O)C1 [NU‐9]
- pEC50: 6.52
